As a reminder, the IC50 is the concentration needed to halve the response being measured. A high value points to weaker potency.

What all share (type): biochemical
The target in experiment [1] is GST-tagged SIK1 (Homo sapiens (Human), UniProt P57059). In words: SIK1 inhibition test (ADP-Glo Max Assay). The settings on record: enzyme 20 nM, AMARA Peptide 200 μM, ATP 1 mM, 2 hours room temperature. The method, then: (§1) The compounds described in Examples above were used in the SIK1, SIK2, and SIK3 inhibition test.
(§2) The inhibitory activity of the compound for SIK1, SIK2, and SIK3 enzymes was assayed by measuring the amount of ADP, an enzyme reaction product, with ADP-Glo™ Max Assay (Promega). Enzymes, specifically, GST-tagged SIK1 (Carna Biosciences, Inc.), GST-tagged SIK2 (Carna Biosciences, Inc.), and GST-tagged SIK3 (SignalChem) were prepared in a reaction buffer (15 mM tris-hydrochloric acid buffer (pH 7.5), 0.001% Triton X-100, 0.01% BSA) so that the final concentration would be 20 nM, 3 nM, and 100 nM. Enzyme solutions were thus formed. In a reaction buffer, AMARA Peptide (SignalChem) as a substrate with a final concentration of 200 μM (SIK1, SIK2) or 100 μM (SIK3), ATP (Promega) with a final concentration of 1 mM, and magnesium chloride with a final concentration of 5 mM were prepared. Substrate solutions were thus formed. The enzyme solution, the substrate solution, and a DMSO solution of a concentration of the test compound were mixed together and reacted at room temperature for 2 hours. After the reaction, ADP-Glo™ Reagent (Promega) was added, and the reaction was performed at room temperature for 30 minutes. Subsequently, ADP-Glo™ Max Detection Reagent (Promega) was added, and the reaction was performed at room temperature for 30 minutes. The emission by the luciferase reaction was measured with PHERAstar FSX (BMG LABTECH).
(§3) The inhibitory ratio (%) was calculated by: % Inhibition={1−(intensity of sample−intensity of blank (no enzyme solution added))/(intensity of control (DMSO alone)−intensity of blank)}×100. The inhibitory concentration IC50 was calculated based on 16 data values obtained in the concentration response test.

Experiment [2] addresses GST-tagged SIK3 (Homo sapiens (Human), UniProt Q9Y2K2). In words: SIK3 inhibition test (ADP-Glo Max Assay). The settings on record: enzyme 100 nM, AMARA Peptide 100 μM, ATP 1 mM, 2 hours room temperature. The method, then:
as §1, §2, §3
In general terms: ADP-Glo turns the ADP formed in a reaction into a luminescent signal.

Experiment [3] deals with GST-tagged SIK2 (Homo sapiens (Human), UniProt Q9H0K1). In words: SIK2 inhibition test (ADP-Glo Max Assay). The settings on record: enzyme 3 nM, AMARA Peptide 200 μM, ATP 1 mM, 2 hours room temperature. Here is the method: as §1, §2, §3
Sequence of GST-tagged SIK2 (Q9H0K1 whole entry): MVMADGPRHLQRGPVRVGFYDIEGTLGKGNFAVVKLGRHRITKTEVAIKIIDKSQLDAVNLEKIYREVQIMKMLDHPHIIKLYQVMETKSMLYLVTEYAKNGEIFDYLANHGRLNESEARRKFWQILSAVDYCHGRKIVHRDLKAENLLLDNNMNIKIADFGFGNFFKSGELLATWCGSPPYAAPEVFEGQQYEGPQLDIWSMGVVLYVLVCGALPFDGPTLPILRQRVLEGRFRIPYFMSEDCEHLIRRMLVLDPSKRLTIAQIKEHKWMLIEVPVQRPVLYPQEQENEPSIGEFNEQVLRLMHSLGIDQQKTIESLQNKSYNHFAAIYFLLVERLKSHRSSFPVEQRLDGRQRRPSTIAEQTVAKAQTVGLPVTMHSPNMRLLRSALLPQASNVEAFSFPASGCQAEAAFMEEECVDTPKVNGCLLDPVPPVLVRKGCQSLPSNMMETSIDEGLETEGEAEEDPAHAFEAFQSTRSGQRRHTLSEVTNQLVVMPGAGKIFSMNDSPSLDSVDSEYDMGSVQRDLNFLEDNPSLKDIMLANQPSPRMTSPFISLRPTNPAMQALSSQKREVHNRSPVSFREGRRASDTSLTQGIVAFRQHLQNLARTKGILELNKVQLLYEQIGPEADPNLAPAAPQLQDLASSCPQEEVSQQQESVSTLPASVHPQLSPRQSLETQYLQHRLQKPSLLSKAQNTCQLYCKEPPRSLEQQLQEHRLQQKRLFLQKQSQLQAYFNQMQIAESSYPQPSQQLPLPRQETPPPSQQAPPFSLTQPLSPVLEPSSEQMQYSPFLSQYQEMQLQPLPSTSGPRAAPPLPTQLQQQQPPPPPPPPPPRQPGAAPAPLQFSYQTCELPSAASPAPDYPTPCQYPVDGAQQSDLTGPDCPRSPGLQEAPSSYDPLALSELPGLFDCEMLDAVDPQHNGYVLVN

Sequence of GST-tagged SIK3 (Q9Y2K2 whole entry): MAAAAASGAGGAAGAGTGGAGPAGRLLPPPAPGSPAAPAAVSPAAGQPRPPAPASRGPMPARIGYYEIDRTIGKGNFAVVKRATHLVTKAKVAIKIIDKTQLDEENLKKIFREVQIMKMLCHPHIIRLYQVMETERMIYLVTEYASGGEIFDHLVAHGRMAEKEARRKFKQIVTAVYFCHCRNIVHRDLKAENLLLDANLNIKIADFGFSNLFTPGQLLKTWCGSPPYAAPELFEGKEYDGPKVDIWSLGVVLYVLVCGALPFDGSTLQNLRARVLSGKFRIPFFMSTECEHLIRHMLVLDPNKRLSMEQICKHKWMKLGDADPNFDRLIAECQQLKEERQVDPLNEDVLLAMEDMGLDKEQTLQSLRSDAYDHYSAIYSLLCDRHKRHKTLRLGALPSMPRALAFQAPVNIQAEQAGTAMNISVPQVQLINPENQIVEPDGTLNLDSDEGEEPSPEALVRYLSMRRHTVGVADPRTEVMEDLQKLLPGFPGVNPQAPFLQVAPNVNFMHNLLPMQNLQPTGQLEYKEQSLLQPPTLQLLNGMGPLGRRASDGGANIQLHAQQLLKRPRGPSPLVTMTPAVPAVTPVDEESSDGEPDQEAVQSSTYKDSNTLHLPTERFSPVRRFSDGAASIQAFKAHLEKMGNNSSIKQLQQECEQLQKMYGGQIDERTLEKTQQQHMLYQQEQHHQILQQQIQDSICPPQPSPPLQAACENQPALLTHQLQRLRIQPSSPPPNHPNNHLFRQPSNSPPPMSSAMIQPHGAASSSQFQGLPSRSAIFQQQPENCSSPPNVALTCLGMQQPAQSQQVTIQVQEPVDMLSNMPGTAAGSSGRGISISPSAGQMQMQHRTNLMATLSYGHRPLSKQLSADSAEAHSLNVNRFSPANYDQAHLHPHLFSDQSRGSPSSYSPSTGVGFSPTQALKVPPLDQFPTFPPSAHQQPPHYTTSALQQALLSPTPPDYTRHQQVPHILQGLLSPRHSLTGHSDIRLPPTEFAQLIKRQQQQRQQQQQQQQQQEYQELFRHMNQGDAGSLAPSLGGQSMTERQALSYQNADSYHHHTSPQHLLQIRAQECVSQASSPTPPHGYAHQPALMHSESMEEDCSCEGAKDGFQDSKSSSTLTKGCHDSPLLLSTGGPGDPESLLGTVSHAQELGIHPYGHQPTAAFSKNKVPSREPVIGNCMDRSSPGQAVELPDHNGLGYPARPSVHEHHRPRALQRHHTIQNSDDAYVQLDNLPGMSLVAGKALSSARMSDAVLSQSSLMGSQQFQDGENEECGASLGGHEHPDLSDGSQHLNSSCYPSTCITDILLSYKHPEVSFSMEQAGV
Sequence of GST-tagged SIK1 (P57059 whole entry): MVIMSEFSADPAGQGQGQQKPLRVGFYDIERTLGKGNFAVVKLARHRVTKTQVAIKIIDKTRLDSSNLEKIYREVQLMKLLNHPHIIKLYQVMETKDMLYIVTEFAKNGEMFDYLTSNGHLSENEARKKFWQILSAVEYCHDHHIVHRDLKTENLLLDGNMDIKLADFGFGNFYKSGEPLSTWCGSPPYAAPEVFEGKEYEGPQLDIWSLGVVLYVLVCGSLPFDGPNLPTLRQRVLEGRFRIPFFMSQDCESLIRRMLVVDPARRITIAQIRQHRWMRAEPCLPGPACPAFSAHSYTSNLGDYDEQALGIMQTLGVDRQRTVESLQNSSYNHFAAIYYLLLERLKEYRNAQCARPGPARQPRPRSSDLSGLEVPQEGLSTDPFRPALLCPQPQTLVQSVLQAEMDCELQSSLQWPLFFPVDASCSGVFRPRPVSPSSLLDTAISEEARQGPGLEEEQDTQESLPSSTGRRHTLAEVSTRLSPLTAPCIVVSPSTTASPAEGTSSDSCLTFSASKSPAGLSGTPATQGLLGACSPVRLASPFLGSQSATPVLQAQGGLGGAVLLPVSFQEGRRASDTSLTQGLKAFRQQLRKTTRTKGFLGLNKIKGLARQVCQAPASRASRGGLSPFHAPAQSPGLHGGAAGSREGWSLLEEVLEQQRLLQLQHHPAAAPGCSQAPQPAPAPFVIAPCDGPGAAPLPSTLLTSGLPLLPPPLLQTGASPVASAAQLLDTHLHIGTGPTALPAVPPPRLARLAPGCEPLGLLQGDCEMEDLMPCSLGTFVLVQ

As to `C[C@H]1CNC(=O)c2c(OC(F)F)cc(-c3c4c(C#N)cc(-c5cnn(C)c5)cc4nn3C)cc21` (single isomer, unassigned) [Example 182], the results for the IC50 in experiment [1], in experiment [2] and in experiment [3] were 6.4 nM, 2 nM and 2.5 nM, respectively.

As for `COc1cc(-c2c3c(C#N)cc(-c4cnn(CCN5CC(F)(F)C5)c4)cc3nn2C)cc(OC(F)F)c1C(=O)NC[C@@H]1CC1(F)F` (stereo in doubt) [Example 108, 4-[4-cyano-6-[1-[2-(3,3-difluoroazetidin-1-yl)ethyl]pyrazol-4-yl]-2-methylindazol-3-yl]-2-(difluoromethoxy)-6-methoxy-N-[[rel-(1R)-2,2-difluorocyclopropyl]methyl]benzamide], the IC50 in experiment [1] turned out to be 16.8 nM; in experiment [2], 2.4 nM; in experiment [3] it was 6.5 nM.

With `COc1cc(-n2cnc3cc(-c4cnn(C)c4)ccc32)cc(OC)c1C(=O)NCC(F)F` [Comparative Example 2, reference compound], the results for the IC50 in experiment [1], in experiment [2] and in experiment [3] were 1000 nM, 39.7 nM and 86.4 nM, respectively.

Regarding `COc1cc(-c2cnc3cc(-c4cnn(C)c4)ccn23)cc2c1C(=O)N(C1CC1)CC2` [Comparative Example 3, 2-cyclopropyl-8-methoxy-6-[7-(1-methylpyrazol-4-yl)imidazo[1,2-a]pyridin-3-yl]-3,4-dihydroisoquinolin-1-one, reference compound], the IC50 turned out to be 398 nM in experiment [1], 6.5 nM in experiment [2] and 22.7 nM in experiment [3].

With `COc1cc(-c2cnn3cc(OCCN4CCOCC4)ccc23)cc2c1C(=O)N(CC(F)(F)F)CC2` [Comparative Example 6, 8-methoxy-6-[6-(2-morpholinoethoxy)pyrazolo[1,5-a]pyridin-3-yl]-2-(2,2,2-trifluoroethyl)-3,4-dihydroisoquinolin-1-one, reference compound], the figures for the IC50 in experiment [1], in experiment [2] and in experiment [3] were 5220 nM, 42 nM and 102 nM, respectively.

Take `COc1cc(-c2c3ccc(OCCN4CCOCC4)cc3nn2C)cc(OC(F)F)c1C(=O)NC1CC1` [Comparative Example 7, N-cyclopropyl-2-(difluoromethoxy)-6-methoxy-4-(2-methyl-6-(2-morpholinoethoxy)-2H-indazol-3-yl)benzamide, reference compound]: the IC50 in experiment [1] was determined as 7600 nM; in experiment [2], 198 nM; in experiment [3] it was 369 nM.

Take `COc1cc(-c2c3ccc(N4CCN(C)CC4)cc3nn2C)cc2c1C(=O)N(CC(F)(F)F)CC2` [Comparative Example 8, 8-methoxy-6-(2-methyl-6-(4-methylpiperazin-1-yl)-2H-indazol-3-yl)-2-(2,2,2-trifluoroethyl)-3,4-dihydroisoquinolin-1(2H)-one, reference compound]: the IC50 in experiment [1] was over 10000 nM; in experiment [2] it was 887 nM; in experiment [3] it was 683 nM.

For the molecule `COc1cc(-c2c3c(C#N)cc(-c4cnn(C)c4)cc3nn2C)cc(OC(F)F)c1C(=O)N[C@@H]1C[C@@H]1F` [Example 1, 4-[4-cyano-2-methyl-6-(1-methylpyrazol-4-yl)indazol-3-yl]-2-(difluoromethoxy)-N-[(1R,2S)-2-fluorocyclopropyl]-6-methoxybenzamide], the IC50 is 5.9 nM in experiment [1], 2.2 nM in experiment [2] and 2.1 nM in experiment [3].

Turning to `COc1cc(-c2c3c(OC)cc(-c4cnn(C)c4)cc3nn2C)cc(OC(F)F)c1C(=O)N[C@@H]1C[C@@H]1F` [Example 2, 2-(difluoromethoxy)-N-[(1R,2S)-2-fluorocyclopropyl]-6-methoxy-4-[4-methoxy-2-methyl-6-(1-methylpyrazol-4-yl)indazol-3-yl]benzamide], the figures for the IC50 in experiment [1], in experiment [2] and in experiment [3] were 19.8 nM, 7.8 nM and 8.3 nM, respectively.

Regarding `COc1cc(-c2c3c(C(F)F)cc(-c4cnn(C)c4)cc3nn2C)cc(OC(F)F)c1C(=O)N[C@@H]1C[C@@H]1F` [Example 3, 2-(difluoromethoxy)-4-[4-(difluoromethyl)-2-methyl-6-(1-methylpyrazol-4-yl)indazol-3-yl]-N-[(1R,2S)-2-fluorocyclopropyl]-6-methoxybenzamide], the IC50 in experiment [1] turned out to be 7.6 nM; in experiment [2], 2.3 nM; in experiment [3], 4.5 nM.

Regarding `COc1cc(-c2c3c(OCCCO)cc(-c4cnn(C)c4)cc3nn2C)cc(OC(F)F)c1C(=O)N[C@@H]1C[C@@H]1F` [Example 4, 2-(difluoromethoxy)-N-[(1R,2S)-2-fluorocyclopropyl]-4-[4-(3-hydroxypropoxy)-2-methyl-6-(1-methylpyrazol-4-yl)indazol-3-yl]-6-methoxybenzamide], the IC50 in experiment [1] was 5 nM; in experiment [2] it was 11.5 nM; in experiment [3], 8.9 nM.

Turning to `COc1cc(-c2c3c(OC(F)F)cc(-c4cnn(C)c4)cc3nn2C)cc(OC(F)F)c1C(=O)N[C@@H]1C[C@@H]1F` [Example 5, 2-(difluoromethoxy)-4-[4-(difluoromethoxy)-2-methyl-6-(1-methylpyrazol-4-yl)indazol-3-yl]-N-[(1R,2S)-2-fluorocyclopropyl]-6-methoxybenzamide], the IC50 in experiment [1] stood at 10.8 nM; in experiment [2], 7.6 nM; in experiment [3], 5 nM.

As to `COc1cc(-c2c3c(OCc4ccccc4)cc(-c4cnn(C)c4)cc3nn2C)cc(OC(F)F)c1C(=O)N[C@@H]1C[C@@H]1F` [Example 6, 2-(difluoromethoxy)-N-[(1R,2S)-2-fluorocyclopropyl]-6-methoxy-4-[2-methyl-6-(1-methylpyrazol-4-yl)-4-phenylmethoxyindazol-3-yl]benzamide], the results for the IC50 in experiment [1], in experiment [2] and in experiment [3] were 2.8 nM, 8.4 nM and 7.1 nM, respectively.

Consider `COc1cc(-c2c3c(C#N)cc(-c4cnn(C)c4)cc3nn2C)cc(OC(F)F)c1C(=O)N1CC(O)(C(F)(F)F)C1` [Example 7, 3-[3-(difluoromethoxy)-4-[3-hydroxy-3-(trifluoromethyl)azetidin-1-carbonyl]-5-methoxyphenyl]-2-methyl-6-(1-methylpyrazol-4-yl)indazole-4-carbonitrile], for which the IC50 in experiment [1] stood at 17.1 nM; in experiment [2] it was 12.4 nM; in experiment [3], 16.2 nM.

Turning to `COc1cc(-c2c3c(C#N)cc(-c4cnn(C)c4)cc3nn2C)cc(OC(F)F)c1C(=O)N1CC(C)(C(F)F)C1` [Example 8, 3-[3-(difluoromethoxy)-4-[3-(difluoromethyl)-3-methylazetidin-1-carbonyl]-5-methoxyphenyl]-2-methyl-6-(1-methylpyrazol-4-yl)indazole-4-carbonitrile], the IC50 in experiment [1] was determined as 7.2 nM; in experiment [2] it was 5.8 nM; in experiment [3], 9.7 nM.

Turning to `COc1cc(-c2c3c(C#N)cc(-c4cnn(C)c4)cc3nn2C)cc(OC(F)F)c1C(=O)N1CC(OC(F)F)C1` [Example 9, 3-[3-(difluoromethoxy)-4-[3-(difluoromethoxy)azetidine-1-carbonyl]-5-methoxyphenyl]-2-methyl-6-(1-methylpyrazol-4-yl)indazole-4-carbonitrile], the IC50 in experiment [1] was found to be 16.2 nM; in experiment [2], 10 nM; in experiment [3], 12.2 nM.

As to `COc1cc(-c2c3c(C#N)cc(-c4cnn(C)c4)cc3nn2C)cc(OC(F)F)c1C(=O)NCC1CC1(F)F` (stereo not drawn) [Example 10], the IC50 came to 13.8 nM in experiment [1], 6.3 nM in experiment [2] and 7.3 nM in experiment [3].

As to `COc1cc(-c2c3c(C(F)F)cc(-c4cnn(C)c4)cc3nn2C)cc(OC(F)F)c1C(=O)N[C@@H]1CC1(F)F` [Example 11, N-[(1R)-2,2-difluorocyclopropyl]-2-(difluoromethoxy)-4-[4-(difluoromethyl)-2-methyl-6-(1-methylpyrazol-4-yl)indazol-3-yl]-6-methoxybenzamide], the IC50 came out at 9.8 nM in experiment [1], 2.4 nM in experiment [2] and 12.3 nM in experiment [3].

As to `COc1cc(-c2c3c(C#N)cc(-c4cnn(C)c4)cc3nn2C)cc(OC(F)F)c1C(=O)NCC1(F)CC1` [Example 12, 4-[4-cyano-2-methyl-6-(1-methylpyrazol-4-yl)indazol-3-yl]-2-(difluoromethoxy)-N-[(1-fluorocyclopropyl)methyl]-6-methoxybenzamide], the IC50 in experiment [1] was determined as 12.4 nM; in experiment [2], 7 nM; in experiment [3], 7 nM.

Take `COc1cc(-c2c3c(OC)cc(-c4cnn(C)c4)cc3nn2C)cc(OC(F)F)c1C(=O)N1CC(O)(C(F)(F)F)C1` [Example 13, [2-(difluoromethoxy)-6-methoxy-4-[4-methoxy-2-methyl-6-(1-methylpyrazol-4-yl)indazol-3-yl]phenyl]-[3-hydroxy-3-(trifluoromethyl)azetidin-1-yl]methanone]: the IC50 came to 4.6 nM in experiment [1], 3.8 nM in experiment [2] and 7.2 nM in experiment [3].
